Our source for the melting point values is US8044082B2, “N-phenylacetamide inhibitors of the enzyme SOAT-1 and pharmaceutical/cosmetic compositions comprised thereof” (Galderma Research & Development, priority 2007, dated 2011).

Molecules are shown by their SMILES.

For orientation: melting point means the temperature of the solid-liquid transition.

The molecule `CCc1cccc(CC)c1NC(=O)CN1C(=O)N(CCc2ccccc2)C2(CCCCC2)C1=O` [compound (I.51), N-(2,6-Diethylphenyl)-2-(2,4-dioxo-1-phenethyl-1,3-diazaspiro[4.5]dec-3-yl)acetamide] yielded a melting point of 178 °C. As for `CCc1ccc(N2C(=O)N(CC(=O)Nc3c(CC)cccc3CC)C(=O)C23CCCCC3)cc1` [compound (I.54), N-(2,6-Diethylphenyl)-2-[1-(4-ethylphenyl)-2,4-dioxo-1,3-diazaspiro[4.5]dec-3-yl]acetamide], the figure is 188 °C; as for `Cc1ccc(N2C(=O)N(CC(=O)Nc3c(C)cc(C)cc3C)C(=O)C23CCCCC3)cc1` [compound (I.45), 2-(2,4-Dioxo-1-p-tolyl-1,3-diazaspiro[4.5]dec-3-yl)-N-(2,4,6-trimethylphenyl)acetamide], 266 °C. The result for `CCCCCCN1C(=O)N(CC(=O)Nc2c(C(C)C)cccc2C(C)C)C(=O)C12CCCCC2` [compound (I.35), N-(2,6-Diisopropylphenyl)-2-(1-hexyl-2,4-dioxo-1,3-diazaspiro[4.5]dec-3-yl)acetamide] reads 205 °C; that for `COc1ccc(N2C(=O)N(CC(=O)Nc3c(C(C)C)cccc3C(C)C)C(=O)C23CCCCC3)cc1` [compound (I.8), N-(2,6-Diisopropylphenyl)-2-[1-(4-methoxyphenyl)-2,4-dioxo-1,3-diazaspiro[4.5]dec-3-yl]acetamide], 193 °C.

In turn, `CCCN1C(=O)N(CC(=O)Nc2c(CC)cccc2CC)C(=O)C12CCCCC2` [compound (I.55), N-(2,6-Diethylphenyl)-2-(2,4-dioxo-1-propyl-1,3-diazaspiro[4.5]dec-3-yl)acetamide] returned a melting point of 222 °C.

`CCc1ccc(N2C(=O)N(CC(=O)Nc3c(CC)cccc3CC)C(=O)C23CCCC3)cc1` [compound (I.57), N-(2,6-Diethylphenyl)-2-[1-(4-ethylphenyl)-2,4-dioxo-1,3-diazaspiro[4.4]non-3-yl]acetamide]: the melting point worked out at 191 °C. The result for `CCc1cc(C)cc(CC)c1NC(=O)CN1C(=O)N(c2ccc(C)cc2)C2(CCCCC2)C1=O` [compound (I.49), N-(2,6-Diethyl-4-methylphenyl)-2-(2,4-dioxo-1-p-tolyl-1,3-diazaspiro[4.5]dec-3-yl)acetamide] reads 223 °C. The result for `CC(C)c1cccc(C(C)C)c1NC(=O)CN1C(=O)N(c2ccc(Cl)cc2)C2(CCCCC2)C1=O` [compound (I.6), 2-[1-(4-Chlorophenyl)-2,4-dioxo-1,3-diazaspiro[4.5]dec-3-yl]-N-(2,6-di-isopropylphenyl)acetamide] reads 237 °C. As for `CC(C)c1cccc(C(C)C)c1NC(=O)CN1C(=O)N(CC2CCCCC2)C2(CCCCC2)C1=O` [compound (I.27), 2-(1-Cyclohexylmethyl-2,4-dioxo-1,3-diazaspiro[4.5]dec-3-yl)-N-(2,6-di-isopropylphenyl)acetamide], the figure is 219 °C; as for `CC(C)CN1C(=O)N(CC(=O)Nc2c(C(C)C)cccc2C(C)C)C(=O)C12CCCCC2` [compound (I.28), N-(2,6-Diisopropylphenyl)-2-(1-isobutyl-2,4-dioxo-1,3-diazaspiro[4.5]dec-3-yl)acetamide], 233 °C. Regarding `Cc1cc(C(=O)N(C)C2CCCCC2)cc(C)c1NC(=O)CN1C(=O)N(c2ccccc2)C2(CCCCC2)C1=O` [compound (I.3), N-(Cyclohexyl)-4-[2-(2,4-dioxo-1-phenyl-1,3-diazaspiro[4.5]dec-3-yl]-acetylamino]-3,5,N-trimethylbenzamide], the melting point stood at 177 °C. The result for `CC(C)c1cccc(C(C)C)c1NC(=O)CN1C(=O)N(c2cccc(F)c2)C2(CCCCC2)C1=O` [compound (I.11), N-(2,6-Diisopropylphenyl)-2-[1-(3-fluorophenyl)-2,4-dioxo-1,3-diazaspiro[4.5]dec-3-yl]acetamide] reads 234 °C; that for `CC(C)c1cccc(C(C)C)c1NC(=O)CN1C(=O)N(c2ccc(F)cc2)C2(CCCC2)C1=O` [compound (I.17), N-(2,6-Diisopropylphenyl)-2-[1-(4-fluorophenyl)-2,4-dioxo-1,3-diazaspiro[4.4]non-3-yl]acetamide], 268 °C. The result for `CC(C)c1cccc(C(C)C)c1NC(=O)CN1C(=O)N(C2CCCCCC2)C2(CCCCC2)C1=O` [compound (I.15)] reads 248 °C. The result for `COc1cccc(N2C(=O)N(CC(=O)Nc3c(C(C)C)cccc3C(C)C)C(=O)C23CCCCC3)c1` [compound (I.18), N-(2,6-Diisopropylphenyl)-2-[1-(3-methoxyphenyl)-2,4-dioxo-1,3-diazaspiro[4.5]dec-3-yl]acetamide] reads 198 °C; that for `CC(C)c1cccc(C(C)C)c1NC(=O)CN1C(=O)N(CC(C)(C)C)C2(CCCCC2)C1=O` [compound (I.32), N-(2,6-Diisopropylphenyl)-2-[1-(2,2-dimethylpropyl)-2,4-dioxo-1,3-diazaspiro[4.5]dec-3-yl]acetamide], 250 °C. Regarding `Cc1ccc(N2C(=O)N(CC(=O)Nc3c(C)cc(C)cc3Cl)C(=O)C23CCCCC3)cc1` [compound (I.50), N-(2-Chloro-4,6-dimethylphenyl)-2-(2,4-dioxo-1-p-tolyl-1,3-diazaspiro[4.5]dec-3-yl)acetamide], the melting point was 248 °C. As for `CC(C)c1cccc(C(C)C)c1NC(=O)CN1C(=O)N(c2ccc(Cl)cc2)C2(CCCC2)C1=O` [compound (I.24), 2-[1-(4-Chlorophenyl)-2,4-dioxo-1,3-diazaspiro[4.4]non-3-yl]-N-(2,6-di-isopropylphenyl)acetamide], the figure is 270 °C. Consider `Cc1ccccc1N1C(=O)N(CC(=O)Nc2c(C(C)C)cccc2C(C)C)C(=O)C12CCCCC2` [compound (I.21), N-(2,6-Diisopropylphenyl)-2-(2,4-dioxo-1-o-tolyl-1,3-diazaspiro[4.5]dec-3-yl)acetamide], for which the melting point came out at 238 °C.

`CCc1cccc(CC)c1NC(=O)CN1C(=O)N(c2ccc(OCc3ccccc3)cc2)C2(CCCCC2)C1=O` [compound (I.62), 2-[1-(4-Benzyloxyphenyl)-2,4-dioxo-1,3-diazaspiro[4.5]dec-3-yl]-N-(2,6-di-ethylphenyl)acetamide] showed a melting point of 184 °C. In turn, `CC(C)c1cccc(C(C)C)c1NC(=O)CN1C(=O)N(c2ccc(CO)cc2)C2(CCCCC2)C1=O` [compound (I.42), N-(2,6-Diisopropylphenyl)-2-[1-(4-hydroxymethylphenyl)-2,4-dioxo-1,3-diazaspiro[4.5]dec-3-yl]acetamide] returned a melting point of 230 °C. As for `CCCCCN1C(=O)N(CC(=O)Nc2c(C(C)C)cccc2C(C)C)C(=O)C12CCCCC2` [compound (I.29), N-(2,6-Diisopropylphenyl)-2-(2,4-dioxo-1-pentyl-1,3-diazaspiro[4.5]dec-3-yl)acetamide], the figure is 200 °C; as for `CC(C)c1cccc(C(C)C)c1NC(=O)CN1C(=O)N(C2CCCC2)C2(CCCCC2)C1=O` [compound (I.13), 2-(1-Cyclopentyl-2,4-dioxo-1,3-diazaspiro[4.5]dec-3-yl)-N-(2,6-diisopropyl-phenyl)acetamide], 257 °C. Turning to `CCCCc1ccc(N2C(=O)N(CC(=O)Nc3c(C(C)C)cccc3C(C)C)C(=O)C23CCCCC3)cc1` [compound (I.38), 2-[1-(4-Butylphenyl)-2,4-dioxo-1,3-diazaspiro[4.5]dec-3-yl]-N-(2,6-diisopropylphenyl)acetamide], the melting point is 220 °C. As to `CC(C)c1cccc(C(C)C)c1NC(=O)CN1C(=O)N(CC2CC2)C2(CCCCC2)C1=O` [compound (I.31), 2-(1-Cyclopropylmethyl-2,4-dioxo-1,3-diazaspiro[4.5]dec-3-yl)-N-(2,6-di-isopropylphenyl)acetamide], the melting point is 240 °C. As for `CC(C)c1cccc(C(C)C)c1NC(=O)CN1C(=O)N(c2ccc(OCc3ccccc3)cc2)C2(CCCCC2)C1=O` [compound (I.60), 2-[1-(4-Benzyloxyphenyl)-2,4-dioxo-1,3-diazaspiro[4.5]dec-3-yl]-N-(2,6-di-isopropylphenyl)acetamide], the figure is 118 °C; as for `CC(C)c1cccc(C(C)C)c1NC(=O)CN1C(=O)N(c2ccc(OCc3ccccc3)cc2)C2(CCCC2)C1=O` [compound (I.41), 2-[1-(4-Benzyloxyphenyl)-2,4-dioxo-1,3-diazaspiro[4.4]non-3-yl]-N-(2,6-di-isopropylphenyl)acetamide], 232 °C; as for `CC(C)c1cccc(C(C)C)c1NC(=O)CN1C(=O)N(c2cccc(Cl)c2)C2(CCCCC2)C1=O` [compound (I.12), 2-[1-(3-Chlorophenyl)-2,4-dioxo-1,3-diazaspiro[4.5]dec-3-yl]-N-(2,6-di-isopropylphenyl)acetamide], 240 °C. As for `CC(C)c1cccc(C(C)C)c1NC(=O)CN1C(=O)N(c2ccccc2)C2(CCCCCC2)C1=O` [compound (I.9), N-(2,6-Diisopropylphenyl)-2-(2,4-dioxo-1-phenyl-1,3-diazaspiro[4.6]undec-3-yl)acetamide], the figure is 230 °C.

In the case of `Cc1cc(C(=O)N(C)c2ccccc2)cc(C)c1NC(=O)CN1C(=O)N(c2ccccc2)C2(CCCCC2)C1=O` [compound (I.4), 4-[2-(2,4-Dioxo-1-phenyl-1,3-diazaspiro[4.5]dec-3-y]acetylamino]-3,5,N-tri methyl-N-phenylbenzamide], the melting point is 242 °C. As for `CC(C)c1cccc(C(C)C)c1NC(=O)CN1C(=O)N(c2ccccc2F)C2(CCCCC2)C1=O` [compound (I.19)], the figure is 231 °C. The result for `COc1ccccc1N1C(=O)N(CC(=O)Nc2c(C(C)C)cccc2C(C)C)C(=O)C12CCCCC2` [compound (I.33), N-(2,6-Diisopropylphenyl)-2-[1-(2-methoxyphenyl)-2,4-dioxo-1,3-diazaspiro[4.5]dec-3-yl]acetamide] reads 229 °C; that for `CCCCCCCCN1C(=O)N(CC(=O)Nc2c(C(C)C)cccc2C(C)C)C(=O)C12CCCCC2` [compound (I.44), N-(2,6-Diisopropylphenyl)-2-(1-octyl-2,4-dioxo-1,3-diazaspiro[4.5]dec-3-yl)acetamide], 202 °C.
